Test results as given in patent US8575158B2, “1-phenyl-substituted heterocyclyl derivatives and their use as prostaglandin D2 receptor modulators” (Actelion Pharmaceuticals Ltd., priority 2010, dated 2013).
pIC50: −log10 of the molar value.

Each molecule was assayed against T1, hCRTH2 receptor (Homo sapiens, UniProt Q9Y5Y4) (assay: Radioligand displacement assay (3H-PGD2) on hCRTH2 receptor membranes). Conditions: antagonistic activity, 3H-PGD2 radioligand displacement, HEK293-hCRTH2 membranes.
T1 construct: expressed in transfected cells; host or cells: HEK293
T1 sequence (Q9Y5Y4 1-395): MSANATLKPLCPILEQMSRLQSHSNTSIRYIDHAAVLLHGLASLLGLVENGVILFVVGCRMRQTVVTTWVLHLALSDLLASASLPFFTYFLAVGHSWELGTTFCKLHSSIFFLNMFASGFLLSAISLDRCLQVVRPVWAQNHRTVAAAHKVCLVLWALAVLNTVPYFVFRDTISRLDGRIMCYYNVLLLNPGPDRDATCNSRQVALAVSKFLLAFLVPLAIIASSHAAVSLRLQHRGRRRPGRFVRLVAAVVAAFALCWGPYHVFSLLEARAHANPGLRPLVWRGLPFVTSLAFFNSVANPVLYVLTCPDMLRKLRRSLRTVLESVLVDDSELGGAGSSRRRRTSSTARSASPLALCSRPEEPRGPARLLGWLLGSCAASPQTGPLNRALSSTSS
Format: binding

Row | SMILES | pIC50
1 | Cc1ccc(OCC(=O)N2CCc3ccccc3C2c2cc(Cl)ccc2OCC(=O)O)cc1 (racemic) [Example 414] | 6.90
2 | COc1ccc(OCC(=O)N2CCc3ccccc3C2c2cc(Cl)ccc2OCC(=O)O)cc1 (racemic) [Example 415] | 6.68
3 | O=C(O)COc1ccc(Cl)cc1C1c2ccccc2CCN1C(=O)COc1cccnc1 (racemic) [Example 416] | 6.67
4 | COc1ccc([C@@H]2C[C@H]2C(=O)N2CCc3ccccc3C2c2cc(Cl)ccc2OCC(=O)O)cc1 (mixture of isomers) [Example 417] | 6.73
5 | O=C(O)COc1ccc(Cl)cc1C1c2ccccc2CCN1C(=O)[C@@H]1C[C@H]1c1ccc(C(F)(F)F)cc1 (mixture of isomers) [Example 419] | 6.02
6 | Cc1ccc([C@@H]2C[C@H]2C(=O)N2CCc3ccccc3C2c2cc(Cl)ccc2OCC(=O)O)cc1 (mixture of isomers) [Example 420] | 6.99
7 | O=C(O)COc1ccc(Cl)cc1C1c2ccccc2CCN1C(=O)[C@@H]1C[C@H]1c1cccc(C(F)(F)F)c1 (mixture of isomers) [Example 426] | 7.03
8 | CN(CC(=O)N1CCc2ccccc2C1c1cc(Cl)ccc1OCC(=O)O)c1ccccc1 (racemic) [Example 439] | 6.42
9 | O=C(O)COc1ccc(Cl)cc1C1c2ccccc2CCN1C(=O)CCN1C(=O)COc2ccc(Cl)cc21 (racemic) [Example 442] | 6.46
10 | O=C(O)COc1ccc(Cl)cc1C1c2ccccc2CCN1C(=O)CNc1ccccc1 (racemic) [Example 443] | 6.07
11 | O=C(O)COc1ccc(Cl)cc1C1c2ccccc2CCN1C(=O)CN1Cc2ccccc2C1 (racemic) [Example 444] | 6.18
12 | O=C(O)COc1ccc(Cl)cc1C1c2ccccc2CCN1C(=O)CCN1Cc2ccccc2C1=O (racemic) [Example 445] | 6.89
13 | Cc1cc2ccccc2n1CCC(=O)N1CCc2ccccc2C1c1cc(Cl)ccc1OCC(=O)O (racemic) [Example 446] | 6.76
14 | CC(C)COCCC(=O)N1CCc2ccccc2C1c1cc(Cl)ccc1OCC(=O)O (racemic) [Example 450] | 6.39
15 | Cc1csc(=O)n1CCC(=O)N1CCc2ccccc2C1c1cc(Cl)ccc1OCC(=O)O (racemic) [Example 452] | 6.30
16 | O=C(O)COc1ccc(Cl)cc1C1c2ccccc2CCN1C(=O)CCN1CCSC1=O (racemic) [Example 453] | 6.51

Row | SMILES | pIC50
17 | Cc1ccc(CCC(=O)N2CCc3ccccc3C2c2cc(Cl)ccc2OCC(=O)O)c(C)n1 (racemic) [Example 455] | 6.70
18 | COc1ccc2c(ccn2CCC(=O)N2CCc3ccccc3C2c2cc(Cl)ccc2OCC(=O)O)c1 (racemic) [Example 459] | 6.80
19 | Cc1nc(C)c(C2CC2C(=O)N2CCc3ccccc3C2c2cc(Cl)ccc2OCC(=O)O)s1 (racemic) [Example 467, (±)-(4-Chloro-2-{2-[2-(2,4-dimethyl-thiazol-5-yl)-cyclopropanecarbonyl]-1,2,3,4-tetrahydro-isoquinolin-1-yl}-phenoxy)-acetic acid] | 6.40
20 | Cc1ccc(OCC(=O)N2CCc3ccccc3C2c2cc(Cl)ccc2OCC(=O)O)cn1 (racemic) [Example 468] | 6.12
21 | Cc1ncccc1OCC(=O)N1CCc2ccccc2C1c1cc(Cl)ccc1OCC(=O)O (racemic) [Example 469] | 6.88
22 | O=C(O)COc1ccc(Cl)cc1C1c2ccccc2CCN1C(=O)COc1cncc(Cl)c1 (racemic) [Example 470] | 6.82
23 | O=C(O)COc1ccc(Cl)cc1C1c2ccccc2CCN1C(=O)COc1ccc(Cl)nc1 (racemic) [Example 472] | 6.96
24 | O=C(O)COc1ccc(Cl)cc1C1c2ccccc2CCN1C(=O)COc1cc(Cl)nc(Cl)c1 (racemic) [Example 473] | 6.19
25 | Cc1cncc(OCC(=O)N2CCc3ccccc3C2c2cc(Cl)ccc2OCC(=O)O)c1 (racemic) [Example 474] | 6.70
26 | O=C(O)COc1ccc(Cl)cc1C1c2ccccc2CCN1C(=O)COc1cccnc1OCCO (racemic) [Example 475] | 6.47
27 | COc1ccc(OCC(=O)N2CCc3ccccc3C2c2cc(Cl)ccc2OCC(=O)O)c(OC)n1 (racemic) [Example 476] | 6.79
28 | COc1cncc(OCC(=O)N2CCc3ccccc3C2c2cc(Cl)ccc2OCC(=O)O)c1 (racemic) [Example 477] | 6.54
29 | O=C(O)COc1ccc(Cl)cc1C1c2ccccc2CCN1C(=O)COc1cncc(F)c1 (racemic) [Example 478] | 6.63
30 | NC(=O)c1ncccc1OCC(=O)N1CCc2ccccc2C1c1cc(Cl)ccc1OCC(=O)O (racemic) [Example 479] | 6.70
31 | N#Cc1ncccc1OCC(=O)N1CCc2ccccc2C1c1cc(Cl)ccc1OCC(=O)O (racemic) [Example 480] | 6.98

Continued, values first:

Row | pIC50 | SMILES
32 | 7.40 | O=C(O)COc1ccc(Cl)cc1C1c2ccccc2CCN1C(=O)COc1ccc(Cl)cc1 (racemic) [Example 412]
33 | 7.15 | O=C(O)COc1ccc(Cl)cc1C1c2ccccc2CCN1C(=O)COc1cccc(Cl)c1 (racemic) [Example 413]
34 | 7.79 | O=C(O)COc1ccc(Cl)cc1C1c2ccccc2CCN1C(=O)[C@@H]1C[C@H]1c1ccc(F)cc1 (mixture of isomers) [Example 418]
35 | 7.62 | O=C(O)COc1ccc(Cl)cc1C1c2ccccc2CCN1C(=O)[C@@H]1C[C@H]1c1cccc(Cl)c1 (mixture of isomers) [Example 421]
36 | 8.25 | Cc1ccccc1[C@@H]1C[C@H]1C(=O)N1CCc2ccccc2C1c1cc(Cl)ccc1OCC(=O)O (mixture of isomers) [Example 422]
37 | 8.18 | O=C(O)COc1ccc(Cl)cc1C1c2ccccc2CCN1C(=O)[C@@H]1C[C@H]1c1ccccc1C(F)(F)F (mixture of isomers) [Example 423]
38 | 7.92 | O=C(O)COc1ccc(Cl)cc1C1c2ccccc2CCN1C(=O)[C@@H]1C[C@H]1c1cccc(F)c1 (mixture of isomers) [Example 424]
39 | 7.51 | COc1cccc([C@@H]2C[C@H]2C(=O)N2CCc3ccccc3C2c2cc(Cl)ccc2OCC(=O)O)c1 (mixture of isomers) [Example 425]
40 | 7.33 | Cc1cccc([C@@H]2C[C@H]2C(=O)N2CCc3ccccc3C2c2cc(Cl)ccc2OCC(=O)O)c1 (mixture of isomers) [Example 427]
41 | 8.88 | O=C(O)COc1ccc(Cl)cc1C1c2ccc(F)cc2CCN1C(=O)[C@@H]1C[C@H]1c1ccccc1 (mixture of isomers) [Example 428]
42 | 8.66 | O=C(O)COc1ccc(Cl)cc1C1c2ccc(F)cc2CCN1C(=O)[C@@H]1C[C@H]1c1ccccc1C(F)(F)F (mixture of isomers) [Example 429]
43 | 8.45 | Cc1ccccc1[C@@H]1C[C@H]1C(=O)N1CCc2cc(F)ccc2C1c1cc(Cl)ccc1OCC(=O)O (mixture of isomers) [Example 431]
44 | 7.39 | Cc1ccc(OCC(=O)N2CCc3cc(F)ccc3C2c2cc(Cl)ccc2OCC(=O)O)c(C)n1 (racemic) [Example 432]
45 | 7.05 | COc1ccc2[nH]cc(CCC(=O)N3CCc4cc(F)ccc4C3c3cc(Cl)ccc3OCC(=O)O)c2c1 (racemic) [Example 433]
46 | 7.48 | Cn1cc(CCC(=O)N2CCc3cc(F)ccc3C2c2cc(Cl)ccc2OCC(=O)O)c2ccccc21 (racemic) [Example 434]
47 | 7.33 | Cc1ccccc1CCC(=O)N1CCc2cc(F)ccc2C1c1cc(Cl)ccc1OCC(=O)O (racemic) [Example 435]

Row | pIC50 | SMILES
48 | 8.24 | O=C(O)COc1ccc(Cl)cc1C1c2ccc(F)cc2CCN1C(=O)CCCc1ccccc1F (racemic) [Example 436]
49 | 8.28 | O=C(O)COc1ccc(Cl)cc1C1c2ccc(F)cc2CCN1C(=O)COCc1ccccc1Cl (racemic) [Example 437]
50 | 7.04 | O=C(O)COc1ccc(Cl)cc1C1c2ccc(F)cc2CCN1C(=O)CCOc1ccc(F)cc1 (racemic) [Example 438]
51 | 7.25 | O=C(O)COc1ccc(Cl)cc1C1c2ccccc2CCN1C(=O)CCCN1CCCC1=O (racemic) [Example 440]
52 | 7.90 | O=C(O)COc1ccc(Cl)cc1C1c2ccccc2CCN1C(=O)CCN1CCc2ccccc21 (racemic) [Example 441]
53 | 7.86 | Cc1cn(CCC(=O)N2CCc3ccccc3C2c2cc(Cl)ccc2OCC(=O)O)c2ccccc12 (racemic) [Example 447]
54 | 7.45 | O=C(O)COc1ccc(Cl)cc1C1c2ccccc2CCN1C(=O)CCn1ncc2ccccc21 (racemic) [Example 448]
55 | 7.58 | O=C(O)COc1ccc(Cl)cc1C1c2ccccc2CCN1C(=O)CCN1CCCc2ccccc21 (racemic) [Example 449]
56 | 7.19 | O=C(O)COc1ccc(Cl)cc1C1c2ccccc2CCN1C(=O)CCn1cnc2ccccc21 (racemic) [Example 451]
57 | 7.16 | Cc1ccc(CCC(=O)N2CCc3ccccc3C2c2cc(Cl)ccc2OCC(=O)O)c(C)c1 (racemic) [Example 454]
58 | 7.36 | Cc1ccc(OCC(=O)N2CCc3ccccc3C2c2cc(Cl)ccc2OCC(=O)O)c(C)c1 (racemic) [Example 456]
59 | 7.22 | Cc1c(CCC(=O)N2CCc3ccccc3C2c2cc(Cl)ccc2OCC(=O)O)c2ccccc2n1C (racemic) [Example 457]
60 | 7.32 | COc1ccc2c(c1)c(CCC(=O)N1CCc3ccccc3C1c1cc(Cl)ccc1OCC(=O)O)cn2C (racemic) [Example 458]
61 | 7.92 | O=C(O)COc1ccc(Cl)cc1C1c2ccccc2CCN1C(=O)CCc1c[nH]c2ccccc12 (racemic) [Example 463]
62 | 7.62 | CC1(C)CC1C(=O)N1CCc2ccccc2C1c1cc(Cl)ccc1OCC(=O)O (racemic) [Example 466, (±)-{4-Chloro-2-[2-(2,2-dimethyl-cyclopropanecarbonyl)-1,2,3,4-tetrahydro-isoquinolin-1-yl]-phenoxy}-acetic acid]
63 | 7.06 | O=C(O)COc1ccc(Cl)cc1C1c2ccccc2CCN1C(=O)COc1cccnc1Cl (racemic) [Example 471]
